Laboratory results published in patent publication US20110191897A1, “Plants Tolerant to HPPD Inhibitor Herbicides” (Bayer CropScience AG, priority 2009, published 2011).
“And” between values parts separate entries of the source, which are not always exact repeats. Equal values may be shown once.

How the values were obtained:
[1] = tested on: T1 tobacco plants with Arabidopsis HPPD; assay: Glasshouse spray trial, herbicidal damage; type: in vivo, Nicotiana tabacum; details: 100 gAl/ha, 7DAT
Method: (§1) T0 Tobacco plants containing either the gene from Arabidopsis coding for HPPD or the gene FMP37e from Blepharisma japonicum coding for FMP37 HPPD, mentioned above (Example 3), were transferred to the glasshouse (28/20° C.), to develop further and produce seeds. Those seeds were harvested and put on soil (ED73 mixed with sand and osmocote Pro) to germinate in the glasshouse (28/20° C.). Three to four weeks later, plantlets were transferred to single pots containing the soil mentioned above. Two weeks later, plants of a size 4-6 cm diameter were sprayed with either • tembotrione at 100 Al/ha prepared from a WP20 (wettable powder 20%) formulation supplemented with ammonium sulfate and methyl ester raps oil, or • isoxaflutole at 100 Al/ha prepared from a WP20 formulation supplemented with ammonium sulfate and methyl ester raps oil, or • bicyclopyrone at 100 gAl/ha prepared from a WP20 formulation supplemented with ammonium sulfate and methyl ester raps oil, or • “blind formulation” made from a WP20 formulation without active ingredient (Al) supplemented with ammonium sulfate and methyl ester raps oil, and were then transferred to a growth chamber with adequate light conditions (20000Lux).

[2] = tested on: T1 tobacco plants with FMP37e coding for the HPPD FMP37; assay: Glasshouse spray trial, herbicidal damage; type: in vivo, Nicotiana tabacum; details: line 113, individual plants, 100 gAl/ha, 7DAT
Method: as §1

[3] = tested on: T0 tobacco plants expressing the FMP37 HPPD (FMP37t); assay: Greenhouse response of T0 tobacco plants to tembotrione; type: in vivo, Nicotiana tabacum; details: 100 g AI/ha, two weeks after treatment
Description: As an example, rooted plants containing the T-DNA PromCaMV35S-OTP-HIS6—FMP37t-TerCaMV35S, will be transferred to the greenhouse under standard growth conditions. Following a period of acclimation of two weeks, the T0 plants will be treated with a mixture containing 100 g tembotrione/ha prepared from a WP20 (wettable powder 20%) formulation supplemented with ammonium sulfate and methyl ester raps oil. Two weeks after the treatment, the symptoms due to the application of the herbicides will be evaluated. The plants are classified in four categories. The treated plants evaluated as “0” are looking like the untreated tobacco plants. The plants evaluated as “1” display temporary light bleaching phenotype due to the application of the herbicides. The plants evaluated as “2” display permanent light to strong bleaching symptoms. Finally the plants evaluated as “3” are looking like wild type tobacco plants submitted to the same treatment.

[4] = tested on: T0 rice plants with FMP37e; assay: Rice glasshouse trial, response to tembotrione; type: in vivo; details: 100 g AI/ha, 7 DAT
Method: (§2) T0 rooted plantlets (either selected on phosphinothricin alone or on phosphinothricin supplemented with tembotrione) were transferred to soil in the glasshouse. Following an acclimation period, sufficiently grown plants were treated with the different HPPD inhibitor herbicides. As an example, T0 plants were sprayed with tembotrione of formulation type WP20 100 g Al/ha supplemented with ammonium sulfate and methyl ester raps oil. Seven days after the spray application, the symptoms due to the application of the herbicide were evaluated and compared the symptoms observed on wild type plants submitted to the same treatment.
(§3) The plants were classified in three categories based on the phenotype developed in response to the herbicide seven days after the treatment.

wild type rice plants = assay: Rice glasshouse trial, response to tembotrione; type: in vivo; details: 100 g AI/ha, 7 DAT
Method: as §2, §3

[5] = tested on: soybean events expressing the FMP37 HPPD protein; assay: Soybean greenhouse treatment with tembotrione; type: in vivo; details: 100 g Al/ha, eight events
Method: Plants containing the transgene were then sprayed with HPPD inhibitor herbicides, as for example with tembotrione at a rate of 100 g Al/ha. Ten days after the application the symptoms due to the application of the herbicide were evaluated and compared to the symptoms observed on a wild type plants under the same conditions.
Eight events expressing the FMP37 HPPD protein have been generated from the green shoots of above and were transferred to the greenhouse. Four weeks after acclimation, i.e. plants at a developmental stage of 3-4 internodes were treated with 100 g Al/ha tembotrione prepared from a WP 20 formulation supplemented with ammonium sulfate and methyl ester raps oil. Ten days after application, the symptoms caused by the application of the HPPD inhibitor herbicide were evaluated and compared to the symptoms observed on treated non-transgenic wild-type soybean plants.

In the case of `CS(=O)(=O)c1ccc(C(=O)C2C(=O)CCCC2=O)c(Cl)c1COCC(F)(F)F` [Tembotrione, 2-[2-chloro-4-(methylsulfonyl)-3-[(2,2,2,-tri-fluoroethoxy)methyl]benzoyl]-1,3-cyclo-hexanedione], the “% injury” value ([1]; line 252, individual plants) was 40%, the “% injury” value ([1]; line 258, individual plants) was 100% and the “% injury” value ([1]; line 327, individual plants) was 40% and 50%. For the same molecule, the “% injury” value [2] was 5% and 10% (2×) and 40% and 70%, the “number of plants in category 0 (looking like the untreated tobacco plants)” value [3] was 6 and the “number of plants in category 2 (permanent light to strong bleaching)” value [3] was 13. The “number of plants in category 3 (like treated wild type tobacco plants)” value [3] was 7, the “number of plants in Class I (no injuries)” value [4] was 1 and the “number of plants in Class II (injury: 10-40%)” value [4] was 6. For the same molecule, the “number of plants in Class III (injury: 41-100%)” value [4] was 16, the “number of plants in Class II (injury: 10-40%)” value (wild type rice plants) was 0 and the “events with bleaching like non-transgenic wild-type soybean plant” value [5] was “two events”. The “events with local transitory bleaching symptoms, recovered completely 7 days after application” value [5] was “One other event”, the “events with transitory light bleaching symptoms, recovered 14 days after application” value [5] was “One event” and the “events without any bleaching phenotype” value ([5]; ten days after application) was “Four of the eight events”.
